Values of other authors in patent publication US20070027110A1, “Double salts of (-)-hydroxycitric acid with an amine and a group II a metal and a process for preparing the same” (priority 2004, published 2007).

Conditions: free acid form, forming lactone; liquid form unstable during storage

O=C(O)CC(O)(C(=O)O)C(O)C(=O)O (single isomer, unassigned; (-)) [(−)-hydroxycitric acid]
stability: unstable
